The record followed here is patent publication US20220144812A1, “QUINOLINE DERIVATIVES AND THEIR USE FOR THE TREATMENT OF CANCER” (Epizyme, Inc., priority 2019, published 2022).

For orientation: IC50 means the concentration needed to halve the response being measured.

In one assay the target is T1, CREBBP (1084-1701) (Homo sapiens, UniProt Q92793).
T1 construct: measured in the following biochemical assay using CREBBP (1084-1701); purchased
T1 sequence (Q92793 1084-1701): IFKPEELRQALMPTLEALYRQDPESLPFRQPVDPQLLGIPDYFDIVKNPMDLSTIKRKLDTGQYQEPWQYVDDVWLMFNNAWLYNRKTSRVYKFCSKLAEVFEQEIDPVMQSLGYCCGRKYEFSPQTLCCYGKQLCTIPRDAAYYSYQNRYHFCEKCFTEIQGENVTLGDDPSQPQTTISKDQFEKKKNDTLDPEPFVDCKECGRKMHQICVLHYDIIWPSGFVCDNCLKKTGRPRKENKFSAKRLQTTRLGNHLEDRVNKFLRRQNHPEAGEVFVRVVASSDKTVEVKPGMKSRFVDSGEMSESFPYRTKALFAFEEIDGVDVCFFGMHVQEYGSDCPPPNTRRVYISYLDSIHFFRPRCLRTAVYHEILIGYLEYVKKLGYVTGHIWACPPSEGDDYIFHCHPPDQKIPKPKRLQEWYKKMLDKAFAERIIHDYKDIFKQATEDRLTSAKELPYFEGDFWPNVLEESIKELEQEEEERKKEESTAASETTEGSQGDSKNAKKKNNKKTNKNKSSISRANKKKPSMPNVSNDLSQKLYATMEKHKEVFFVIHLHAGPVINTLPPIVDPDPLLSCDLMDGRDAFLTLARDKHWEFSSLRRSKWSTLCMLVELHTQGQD
Nature of the assay: Biochemical assay for CREBBP (1084-1701), SAMDI. The note with it: SAMDI, read-out: CREBBP Biochemistry IC50. The text has this: The following example describes materials and methods relating to a biochemical assay for CREBBP (1084-1701). IC50 values (micromolar (μM)) are summarized in Table 1, Table 2, and Table 3 under the column labeled: “CREBBP Biochemistry IC50 (micromolar).”
MATERIALS: Reagents 1M Tris pH 8.0, Tween 20 10%, DTT, bovine serum gelatin (BSG) 2%, Peptide #233 (biotin-H3 11-25, K14R, K23R), Acetyl-CoA, CREBBP (1084-1701), formic acid (100%), and sodium bicarbonate were commercially available.
METHODS: The effect of compounds was measured in the following biochemical assay using CREBBP (1084-1701). Enzyme mix 30 μL per well was added using a Multi-drop to wells of prepared Compound Stock plate. The enzyme was incubated in the Compound Stock plate for 30 minutes at room temperature. Substrate mix, 20 μL per well, was added to Compound Stock plate using a Multi-drop. The plate was covered and incubate 30 minutes at room temperature. The reaction was stopped with addition of 5 μL per well of 5% formic acid using a Multi-drop. The plate was Incubated for 30 minutes at room temperature. The reaction mixture was neutralized with addition of 5 μL per well of 10% sodium bicarbonate using a Multi-drop. The plate was Incubated for 35 minutes at room temperature. The reaction mixture was Transferred 2.5 μL per well to a SAMDI biochip. The plate was Incubated for 60 minutes at room temperature. The samples were washed, dried, and matrix applied to SAMDI biochip. The SAMDI biochip was then read on the mass spectrometer.
Regarding `CCn1ncc(CN(C)C(=O)c2cc(-c3cncc(Cl)c3)nc3ccc(Cl)cc23)c1C` [Compound 341], the IC50 stood at 12 µM.
Turning to `CCn1ncc(CN(C)C(=O)c2cc(-c3ccccc3Cl)nc3cc(C)ccc23)c1C` [Compound 263], the IC50 came to 87 µM.
Same read-out and setting: under `CCn1ncc(CN(C)C(=O)c2cc(-c3ccccc3OC)nc3ccccc23)c1C` [Compound 351] stands 32 µM; under `CCn1ncc(CN(C)C(=O)c2cc(-c3cccc(C)c3)nc3ccccc23)c1C` [Compound 353], 84 µM; under `CCn1ncc(CN(C)C(=O)c2cc(-c3cccnc3)nc3ccc(Cl)cc23)c1C` [Compound 325], 55 µM.
For the compound `CCn1ncc(CN(C)C(=O)c2nc(-c3ccccc3Cl)nc3ccc(C)cc23)c1C` [Compound 370], the IC50 was 0.67 µM.
For the compound `CCn1ncc(CN(C)C(=O)c2cc(-c3ccccc3Cl)nc3c(Cl)cccc23)c1C` [Compound 269], the IC50 came out at 26 µM.
The same measure, in the same setting: to `CCn1ncc(CN(C)C(=O)c2cc(-c3ccccc3Cl)nc3cc(Cl)ccc23)c1C` [Compound 270] belongs 25 µM; to `CCc1ncc(CN(C)C(=O)c2nc(-c3cccc(Cl)c3Cl)nc3ccc(Cl)cc23)n1C` [Compound 274], 0.0032 µM.
Regarding `CCn1ncc(CN(C)C(=O)c2nc(-c3cccc(C(F)(F)F)c3)nc3ccc(Cl)cc23)c1C` [Compound 280], the IC50 was 0.27 µM.
The same measure, in the same setting: to `CCn1ncc(CN(C)C(=O)c2cc(-c3cccc(Cl)c3)nc3ccc(F)cc23)c1C` [Compound 368] belongs 15 µM; to `CCn1ncc(CN(C)C(=O)c2cc(-c3ccccn3)nc3ccccc23)c1C` [Compound 326], 40 µM; to `CCn1ncc(CN(C)C(=O)c2cc(-c3ccccc3)nc3ccc(OC)cc23)c1C` [Compound 272], 66 µM.
The same measure, in the same setting: to `CN(Cc1cc2n(n1)CCC2)C(=O)c1cc(-c2cccc(Cl)c2)nc2ccc(Cl)cc12` [Compound 271] belongs 14 µM; to `CCn1ncc(CN(C)C(=O)c2cc(-c3ccc[nH]3)nc3ccc(Cl)cc23)c1C` [Compound 320], 51 µM.
Still for that read-out and setting: to `CCn1ncc(CN(C)C(=O)c2cc(-c3ccccc3Cl)nc3c(F)cccc23)c1C` [Compound 365] belongs 14 µM.

For another assay, the system named is H3K18Ac in HB-CLS-2 cells. Put plainly: H3K18AC in-cell western (ICW) assay. It counts as cell-based. The note with it: H3K18Ac in-cell western, HB-CLS-2 cells; read-out: CREBBP ICW IC50. The text has this:
The following example describes methods and materials relating to an H3K18AC in-cell western assay. IC50 values (micromolar (μM)) are summarized in Table 1, Table 2, and Table 3 under the column labeled: “CREBBP ICW IC50 (micromolar).”
MATERIALS: HB-CLS-2 cell line, DMEM: Ham's F12 medium (1:1 mixture), penicillin-streptomycin, heat inactivated fetal bovine serum, D-PBS, Odyssey blocking buffer, 800CW goat anti-rabbit IgG (H+L) antibody, Licor Odyssey CLx Infrared Scanner, H3K18Ac rabbit monoclonal antibody. DRAQS fluorescent probe solution (5 mM), and 100% methanol were commercially available. HB-CLS-2 adherent cells were maintained in complete growth medium (DMEM: Ham's F12 supplemented with 10% v/v heat inactivated fetal bovine serum) and cultured at 37° C. under 5% CO2.
METHOD: Cell Treatment, ICW for detection of H3K18Ac and DNA content. HB-CLS-2 cells were seeded in assay medium (DMEM: Ham's F12 supplemented with 10% v/v heat inactivated fetal bovine serum and 1% Penicillin/Streptomycin) at a concentration of 80,000 cells per mL in a Poly-D-Lysine coated 384-well culture plates at 50 μL per well. Plates were incubated at room temperature for 30 minutes and then incubated at 37° C., 5% CO2 for additional 16-24 hours. Compounds and DMSO normalization were then added directly to the plates using a D300 Digital Dispenser and returned to the incubator at 37° C., 5% CO2 for 2 hrs. After the incubation, the contents of the plates were discarded into the appropriate waste stream and blotted on laboratory tissue to remove residual liquid. 90 μL per well of 100% ice cold methanol was added to the plates and incubated at room temperature for 15 minutes. Then methanol was then discarded into the appropriate waste stream and the plates again blotted on laboratory tissue to remove residual liquid. Plates were transferred to a Biotek 405 plate washer and washed 3 times with 100 μL per well of wash buffer (1X PBS containing 0.1% Triton X-100 (v/v)). Next, 50 μL per well of Odyssey blocking buffer with 0.1% Tween 20 (v/v) was added to each plate and incubated for 1 hour at room temperature. Blocking buffer was removed and 20 μL of primary antibody were added (α-H3K18Ac diluted 1:800 in Odyssey buffer with 0.1% Tween 20 (v/v)) and plates were incubated overnight (16 hours) at 4° C. Plates were washed 5 times with 100 μL per well of wash buffer. Next 20 μL per well of secondary antibody was added (1:400 800CW goat anti-rabbit IgG (H+L) antibody, 1:2000 DRAQ5 in Odyssey buffer with 0.1% Tween 20 (v/v)) and incubated for 1 hour at room temperature. The plates were washed 3 times with 100 μL per well wash buffer then 3 times with 100 μL per well of water. Plates were allowed to dry at room temperature then imaged on the Licor Odyssey CLx machine which measured integrated intensity at 700 nm and 800 nm wavelengths. Both 700 and 800 channels were scanned.
Consider `CCn1ncc(CN(C)C(=O)c2nc(-c3cnn(CCC(O)CN4CCCC4)c3)nc3ccc(Cl)cc23)c1C` (stereo not shown) [Compound 249], for which the IC50 came out at 20 µM.
Consider `CCn1ncc(CN(C)C(=O)c2cc(N3CCN(C(C)=O)CC3)nc3ccc(Cl)cc23)c1C` [Compound 244], for which the IC50 amounted to 20 µM.
The same measure, in the same setting: under `CCc1cc(CNC)cc(-c2nc(C(=O)N(C)Cc3cnn(CC)c3C)c3cc(Cl)ccc3n2)c1` [Compound 423] stands 0.53 µM; under `CCn1ncc(CN(C)C(=O)c2cc(N3CCNCC3)nc3ccc(Cl)cc23)c1C` [Compound 246], 20 µM.
Consider `CCc1nc(-c2cc(C(=O)N(C)Cc3cnn(CC)c3C)c3cc(Cl)ccc3n2)ccc1NCCNC` [Compound 425], for which the IC50 worked out at 0.15 µM.
On the same count and under the same terms, to `CCn1ncc(CN(C)C(=O)c2cc(-c3ccc(OCCCNC)c(C)n3)nc3ccc(Cl)cc23)c1C` [Compound 430] belongs 0.69 µM; to `CCn1nc(C)c(CN(C)C(=O)c2nc(-c3ccccc3Cl)nc3ccc(Cl)cc23)c1C` [Compound 201], 20 µM.
Same read-out and setting: to `CCn1ncc(CN(C)C(=O)c2nc(-c3ccc(OC4CCNCC4)c(OC)c3)nc3ccc(Cl)cc23)c1C` [Compound 428] belongs 1.4 µM.
On to `CCn1ncc(CN(C)C(=O)c2nc(-c3ccc(OCCN(C)C(=O)OC(C)(C)C)c(F)c3)nc3ccc(Cl)cc23)c1C` [Compound 251], for which the IC50 was 20 µM.
On to `CCn1ncc(CN(C)C(=O)c2cc(-c3ccc(NCCNC)c(C)n3)nc3ccc(COC)cc23)c1C` [Compound 427], for which the IC50 came to 0.19 µM.
Take `CCn1ncc(CN(C)C(=O)c2cc(-c3ccc(NCCNC)c(C)n3)nc3ccc(C)cc23)c1C` [Compound 429]: the IC50 turned out to be 0.16 µM.
In the case of `CCn1ncc(CN(C)C(=O)c2cc(N3CCN(C)CC3)nc3ccc(Cl)cc23)c1C` [Compound 214], the IC50 was determined as 20 µM.
On the same count and under the same terms, under `CCn1ncc(CN(C)C(=O)c2nc(-c3cc(N)c4nc[nH]c4c3)nc3ccc(Cl)cc23)c1C` [Compound 422] stands 0.6 µM; under `CCn1ncc(CN(C)C(=O)c2cc(-c3ccc(N(C)CCN(C)C)c(C)n3)nc3ccc(Cl)cc23)c1C` [Compound 420], 0.74 µM; under `CCn1ncc(CN(C)C(=O)c2cc(-c3ccc(OCCNC(C)=O)c(C)n3)nc3ccc(Cl)cc23)c1C` [Compound 431], 0.84 µM.
The same measure, in the same setting: to `CCn1ncc(CN(C)C(=O)c2nc(-c3cnn(CC4CCCN4)c3)nc3ccc(Cl)cc23)c1C` (stereo not shown) [Compound 204] belongs 20 µM; to `CCn1ncc(CN(C)C(=O)c2cc(-c3cnc(NCCNC)cn3)nc3ccc(Cl)cc23)c1C` [Compound 424], 0.4 µM.
In the case of `CCn1ncc(CN(C)C(=O)c2cc(N3CCN(C(=O)OC(C)(C)C)CC3)nc3ccc(Cl)cc23)c1C` [Compound 205], the IC50 was determined as 20 µM.
In the case of `CCn1ncc(CN(C)C(=O)c2nc(-c3ccc4ccn(C(=O)OC(C)(C)C)c4c3)nc3ccc(Cl)cc23)c1C` [Compound 234], the IC50 stood at 20 µM.
The same measure, in the same setting: under `CCn1ncc(CN(C)C(=O)c2nc(C3CCCN3)nc3ccc(Cl)cc23)c1C` (stereo not shown) [Compound 207] stands 20 µM.
Still for that read-out and setting: to `CCn1ncc(CN(C)C(=O)c2nc(-c3cc(C(=O)NC4CC4)n(C)n3)nc3ccc(Cl)cc23)c1C` [Compound 421] belongs 0.26 µM; to `CCn1ncc(CN(C)C(=O)c2nc(-c3cnn(CCN(C)C(=O)OC(C)(C)C)c3)nc3ccc(Cl)cc23)c1C` [Compound 197], 20 µM; to `CCn1ncc(CN(C)C(=O)c2nc(-c3ccc(OCCNC(=O)OC(C)(C)C)c(F)c3)nc3ccc(Cl)cc23)c1C` [Compound 252], 20 µM.
With `CCn1ncc(CN(C)C(=O)c2cc(-c3cn(C)c(C)n3)nc3cc(Cl)ccc23)c1C` [Compound 203], the IC50 was 20 µM.
With `CCn1ncc(CN(C)C(=O)c2nc(-c3cnn(CCC(O)CNC)c3)nc3ccc(Cl)cc23)c1C` (stereo not shown) [Compound 223], the IC50 was 20 µM.

Still in this assay, the particulars now being: H3K18Ac in-cell western; read-out: CREBBP ICW IC50.
As for `CCn1ncc(CN(C)C(=O)c2nc(N3CCN(C(C)=O)CC3)nc3ccc(Cl)cc23)c1C` [Compound 195], the IC50 came out at 20 µM.
With `CCn1ncc(CN(C)C(=O)c2nc(-c3cccc(Cl)c3)nc3cc(N4CCOCC4)ccc23)c1C` [Compound 191], the IC50 came to 20 µM.
As to `CCn1ncc(CN(C)C(=O)c2nc(N3CCCNCC3)nc3ccc(Cl)cc23)c1C` [Compound 187], the IC50 stood at 20 µM.
The same measure, in the same setting: to `CCn1ncc(CN(C)C(=O)c2nc(-c3cnn(CCCNC(=O)OC(C)(C)C)c3)nc3ccc(Cl)cc23)c1C` [Compound 189] belongs 20 µM; to `CCn1ncc(CN(C)C(=O)c2nc(-c3cnn(CCCN(C)C(=O)OC(C)(C)C)c3)nc3ccc(Cl)cc23)c1C` [Compound 188], 20 µM.
